The values that follow are results of earlier work, collected in US20180371365A1, “FABRIC SOFTENER COMPOSITIONS” (The Procter & Gamble Company, priority 2017, published 2018).

Structures are written as SMILES.

The conditions of this data set: acidifying agents for compositions having pH 3.5 or greater.
Take `CCCCCCC(=O)O` [heptanoic acid]: the pKa (commonly the negative logarithm of the acid dissociation constant) is 5.1.
For the compound `OCl` [hypochlorous acid], the pKa was 7.0.
Consider `c1c[nH]cn1` [imidazole], for which the pKa was 7.0.
For the compound `CCCCCCCCC(=O)O` [nonanoic acid], the pKa is given as 5.2.
As for `O=C(O)C=Cc1ccc(O)cc1` [p-coumaric acid, 4-hydroxy cinnamic acid], the pKa is 4.6.
Take `C=CCCCCCCCCC(=O)O` [undecylenic acid]: the pKa is listed as 5.0.
